The source made the active and inactive calls. The rule behind the calls is not given here.
Legend:
[1] = target: T1, C-C chemokine receptor type 2 (Homo sapiens, UniProt P41597); assay: Displacement of 125I-MCP1 from human CCR2 receptor expressed in human THP-1 cell membrane by SPA assay; format: cell membranes
[2] = target: T1, C-C chemokine receptor type 2; assay: Antagonist activity at human CCR2 receptor expressed in human THP-1 cells assessed as inhibition of MCP1-induced Ca2+ flux by FLIPR analysis; format: functional, cell-based
[3] = Intrinsic clearance in rat hepatocytes assessed per 10^6 cells; format: ADME, cell-based, Hepatocyte; conditions: read-out: CLH
[4] = Intrinsic clearance in dog hepatocytes assessed per 10^6 cells; format: ADME, cell-based, Canis lupus familiaris, Hepatocyte; conditions: read-out: CLH
[5] = Intrinsic clearance in human hepatocytes assessed per 10^6 cells; format: ADME, cell-based, Hepatocyte; conditions: read-out: CLH
[6] = Clearance in rat at 4 umol/kg, iv; format: ADME, organism-based; conditions: in vivo
[7] = Clearance in dog at 4 umol/kg, iv; format: ADME, organism-based, Canis lupus familiaris; conditions: in vivo
[8] = Volume of distribution at steady state in rat at 4 umol/kg, iv; format: ADME, organism-based; conditions: in vivo, read-out: Vdss
[9] = Volume of distribution at steady state in dog at 4 umol/kg, iv; format: ADME, organism-based, Canis lupus familiaris; conditions: in vivo, read-out: Vdss
[10] = Half life in rat at 4 umol/kg, iv; format: ADME, organism-based; conditions: in vivo
[11] = Half life in dog at 4 umol/kg, iv; format: ADME, organism-based, Canis lupus familiaris; conditions: in vivo
[12] = Oral bioavailability in rat at 11 umol/kg; format: ADME, organism-based; conditions: in vivo
[13] = Oral bioavailability in dog at 4 umol/kg; format: ADME, organism-based, Canis lupus familiaris; conditions: in vivo
[14] = Lipophilicity, log D of the compound at pH 7.4; format: physicochemical; conditions: buffer
[15] = Lipophilicity, log P of the compound at pH 7.4; format: physicochemical; conditions: buffer
[16] = Dissociation constant, pKa of the compound; format: physicochemical
[17] = Aqueous solubility of the compound; format: physicochemical; conditions: buffer
[18] = target: T2, Voltage-gated inwardly rectifying potassium channel KCNH2 (Homo sapiens, UniProt Q12809); assay: Inhibition of human ERG by electrophysiology assay
T2 sequence (Q12809 whole entry): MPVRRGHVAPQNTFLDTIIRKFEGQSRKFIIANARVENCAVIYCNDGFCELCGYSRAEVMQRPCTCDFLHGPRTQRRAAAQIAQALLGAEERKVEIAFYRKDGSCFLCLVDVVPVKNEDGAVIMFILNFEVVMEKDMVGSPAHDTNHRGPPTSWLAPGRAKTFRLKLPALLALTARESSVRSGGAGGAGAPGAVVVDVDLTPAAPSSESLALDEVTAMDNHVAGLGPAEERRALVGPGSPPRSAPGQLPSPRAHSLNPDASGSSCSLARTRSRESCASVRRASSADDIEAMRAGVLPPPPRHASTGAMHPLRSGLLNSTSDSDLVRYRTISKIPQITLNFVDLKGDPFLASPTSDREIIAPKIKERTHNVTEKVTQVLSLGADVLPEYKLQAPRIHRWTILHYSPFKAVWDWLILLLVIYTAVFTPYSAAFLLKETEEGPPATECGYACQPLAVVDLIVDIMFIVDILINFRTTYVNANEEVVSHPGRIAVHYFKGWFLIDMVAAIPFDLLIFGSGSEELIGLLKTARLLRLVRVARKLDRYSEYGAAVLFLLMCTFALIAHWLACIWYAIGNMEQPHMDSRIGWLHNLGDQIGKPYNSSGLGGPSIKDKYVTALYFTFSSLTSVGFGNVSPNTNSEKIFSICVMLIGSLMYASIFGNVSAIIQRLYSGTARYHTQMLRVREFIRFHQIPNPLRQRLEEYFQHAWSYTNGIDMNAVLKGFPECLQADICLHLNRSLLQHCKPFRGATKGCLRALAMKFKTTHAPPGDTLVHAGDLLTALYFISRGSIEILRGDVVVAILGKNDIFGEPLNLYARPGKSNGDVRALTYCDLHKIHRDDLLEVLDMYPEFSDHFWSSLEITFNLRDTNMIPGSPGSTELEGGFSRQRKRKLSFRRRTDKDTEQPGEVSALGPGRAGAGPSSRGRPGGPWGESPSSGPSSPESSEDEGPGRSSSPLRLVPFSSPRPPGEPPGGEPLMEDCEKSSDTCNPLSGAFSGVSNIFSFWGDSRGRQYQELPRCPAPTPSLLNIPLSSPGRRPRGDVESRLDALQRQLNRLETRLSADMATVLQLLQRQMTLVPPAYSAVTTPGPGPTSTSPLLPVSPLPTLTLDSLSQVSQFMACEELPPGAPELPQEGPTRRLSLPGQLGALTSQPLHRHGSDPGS

[19] = target: T1, C-C chemokine receptor type 2; assay: Antagonist activity at human CCR2 in human peripheral whole blood assessed as inhibition of MCP1-induced L-selectin shedding; format: functional, tissue-based; conditions: read-out: pA2 (converted)
[20] = target: C-C chemokine receptor type 2 (Mus musculus, UniProt P51683); assay: Antagonist activity at mouse CCR2 receptor expressed in human THP-1 cells assessed as inhibition of MCP1-induced Ca2+ flux by FLIPR analysis; format: functional, cell-based
Sequence of C-C chemokine receptor type 2 (Mus musculus, UniProt P51683) (P51683 whole entry): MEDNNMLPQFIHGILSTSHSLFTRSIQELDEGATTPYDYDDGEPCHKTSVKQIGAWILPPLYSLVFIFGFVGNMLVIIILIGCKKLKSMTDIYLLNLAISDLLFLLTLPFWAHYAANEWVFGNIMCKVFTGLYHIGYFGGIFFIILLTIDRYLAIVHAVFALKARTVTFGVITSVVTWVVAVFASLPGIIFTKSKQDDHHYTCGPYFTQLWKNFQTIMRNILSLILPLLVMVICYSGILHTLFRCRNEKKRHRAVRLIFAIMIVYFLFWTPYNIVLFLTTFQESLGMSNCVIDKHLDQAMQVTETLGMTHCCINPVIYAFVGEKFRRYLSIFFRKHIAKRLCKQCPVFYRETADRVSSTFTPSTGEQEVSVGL

[21] = target: T3, C-C chemokine receptor type 2 (Rattus norvegicus, UniProt O55193); assay: Antagonist activity at rat CCR2 receptor expressed in human THP-1 cells assessed as inhibition of MCP1-induced Ca2+ flux by FLIPR analysis; format: functional, cell-based
T3 sequence (O55193 whole entry): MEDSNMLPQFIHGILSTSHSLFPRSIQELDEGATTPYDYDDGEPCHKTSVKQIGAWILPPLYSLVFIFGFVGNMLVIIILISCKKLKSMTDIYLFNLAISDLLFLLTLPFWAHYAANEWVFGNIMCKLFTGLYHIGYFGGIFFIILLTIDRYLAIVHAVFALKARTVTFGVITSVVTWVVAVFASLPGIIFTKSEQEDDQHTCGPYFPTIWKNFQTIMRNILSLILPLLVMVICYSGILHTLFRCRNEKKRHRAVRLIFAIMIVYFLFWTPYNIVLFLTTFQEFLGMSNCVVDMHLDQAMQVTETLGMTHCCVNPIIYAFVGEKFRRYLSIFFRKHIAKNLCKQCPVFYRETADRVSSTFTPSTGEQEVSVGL

[22] = Antagonist activity at dog CCR2 receptor expressed in human THP-1 cells assessed as inhibition of MCP1-induced Ca2+ flux by FLIPR analysis; format: functional, cell-based
[23] = target: T4, C-C chemokine receptor type 1 (Homo sapiens) (UniProt P32246); assay: Inhibition of human CCR1 by FLIPR analysis
T4 sequence (whole entry): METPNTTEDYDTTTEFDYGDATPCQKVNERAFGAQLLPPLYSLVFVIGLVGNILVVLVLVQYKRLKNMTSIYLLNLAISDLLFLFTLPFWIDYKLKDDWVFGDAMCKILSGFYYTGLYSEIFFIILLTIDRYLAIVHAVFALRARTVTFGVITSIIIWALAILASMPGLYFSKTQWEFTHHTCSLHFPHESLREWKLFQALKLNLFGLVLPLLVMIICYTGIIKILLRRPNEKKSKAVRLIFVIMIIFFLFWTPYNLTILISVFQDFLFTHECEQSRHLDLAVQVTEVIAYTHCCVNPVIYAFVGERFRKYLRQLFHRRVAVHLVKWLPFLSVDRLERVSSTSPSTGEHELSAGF

[24] = target: C-C chemokine receptor type 8 (Homo sapiens) (UniProt P51685); assay: Inhibition of human CCR8 by FLIPR analysis
Sequence of C-C chemokine receptor type 8 (Homo sapiens) (P51685 whole entry): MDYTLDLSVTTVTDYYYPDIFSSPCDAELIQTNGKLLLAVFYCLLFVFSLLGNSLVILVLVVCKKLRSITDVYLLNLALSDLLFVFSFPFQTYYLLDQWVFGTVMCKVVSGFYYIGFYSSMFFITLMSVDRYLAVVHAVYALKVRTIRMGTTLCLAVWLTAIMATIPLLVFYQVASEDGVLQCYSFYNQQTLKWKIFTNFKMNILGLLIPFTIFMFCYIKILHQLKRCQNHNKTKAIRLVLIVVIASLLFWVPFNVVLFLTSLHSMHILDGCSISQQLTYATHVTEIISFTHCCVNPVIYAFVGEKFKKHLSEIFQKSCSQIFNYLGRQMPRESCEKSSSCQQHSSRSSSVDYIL

[25] = target: C-X-C chemokine receptor type 4 (Homo sapiens) (UniProt P61073); assay: Inhibition of human CXCR4 by FLIPR analysis
Sequence of C-X-C chemokine receptor type 4 (Homo sapiens) (P61073 whole entry): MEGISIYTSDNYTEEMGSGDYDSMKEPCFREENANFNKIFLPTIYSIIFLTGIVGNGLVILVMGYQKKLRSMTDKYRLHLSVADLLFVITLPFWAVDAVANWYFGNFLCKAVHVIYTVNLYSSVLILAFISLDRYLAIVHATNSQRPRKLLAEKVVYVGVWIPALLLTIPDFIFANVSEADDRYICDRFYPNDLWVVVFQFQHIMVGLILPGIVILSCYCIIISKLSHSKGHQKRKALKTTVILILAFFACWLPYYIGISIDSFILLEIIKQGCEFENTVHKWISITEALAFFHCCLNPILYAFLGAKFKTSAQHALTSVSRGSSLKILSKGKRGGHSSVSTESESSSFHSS

[26] = target: T5, C-X-C chemokine receptor type 5 (Homo sapiens) (UniProt P32302); assay: Inhibition of human CXCR5 by FLIPR analysis
T5 sequence (whole entry): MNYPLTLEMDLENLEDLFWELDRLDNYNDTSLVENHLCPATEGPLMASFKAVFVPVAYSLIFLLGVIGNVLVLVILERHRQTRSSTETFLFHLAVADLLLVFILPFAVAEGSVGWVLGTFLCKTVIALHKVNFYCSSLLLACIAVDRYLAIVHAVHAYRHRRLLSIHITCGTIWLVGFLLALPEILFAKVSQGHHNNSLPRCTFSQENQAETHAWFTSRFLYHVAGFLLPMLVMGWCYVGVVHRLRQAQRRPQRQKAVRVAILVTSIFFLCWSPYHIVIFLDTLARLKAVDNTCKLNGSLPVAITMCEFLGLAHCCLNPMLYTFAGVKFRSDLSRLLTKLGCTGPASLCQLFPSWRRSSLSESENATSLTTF

[27] = target: C-C chemokine receptor type 5 (Homo sapiens, UniProt P51681); assay: Inhibition of human CCR5 by FLIPR analysis
Sequence of C-C chemokine receptor type 5 (P51681 whole entry): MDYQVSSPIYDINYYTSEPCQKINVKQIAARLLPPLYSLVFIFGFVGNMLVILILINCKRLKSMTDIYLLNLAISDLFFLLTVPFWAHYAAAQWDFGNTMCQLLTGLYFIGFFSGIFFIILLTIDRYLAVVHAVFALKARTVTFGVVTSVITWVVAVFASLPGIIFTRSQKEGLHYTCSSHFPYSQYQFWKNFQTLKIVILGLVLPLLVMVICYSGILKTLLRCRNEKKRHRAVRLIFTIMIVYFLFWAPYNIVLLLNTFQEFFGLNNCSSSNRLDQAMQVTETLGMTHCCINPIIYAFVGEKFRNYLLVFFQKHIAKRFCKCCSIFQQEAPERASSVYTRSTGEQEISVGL

[28] = target: T2, Voltage-gated inwardly rectifying potassium channel KCNH2

T1 sequence (P41597 whole entry): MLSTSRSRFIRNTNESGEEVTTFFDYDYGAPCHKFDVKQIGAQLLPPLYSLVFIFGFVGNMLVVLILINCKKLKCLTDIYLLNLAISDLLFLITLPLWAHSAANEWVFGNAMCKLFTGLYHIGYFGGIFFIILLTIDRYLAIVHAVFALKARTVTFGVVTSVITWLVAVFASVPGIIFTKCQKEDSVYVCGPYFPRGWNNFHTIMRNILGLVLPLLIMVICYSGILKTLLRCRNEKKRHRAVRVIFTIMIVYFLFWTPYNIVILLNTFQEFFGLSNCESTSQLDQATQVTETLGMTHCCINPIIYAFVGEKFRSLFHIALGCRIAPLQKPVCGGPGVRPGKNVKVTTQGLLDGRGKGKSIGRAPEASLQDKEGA

## CC(C)N1CCN[C@@H](C(=O)N2CCN(C(=O)Nc3ccc(Cl)c(Cl)c3)CC2)C1
[1]
  IC50: 3.5 nM
[2]
  IC50: 5.8 nM
[3]
  hepatocyte CLint: < 2 µL/min/1e6 cells
[4]
  hepatocyte CLint: < 2 µL/min/1e6 cells
[5]
  hepatocyte CLint: < 2 µL/min/1e6 cells
[6]
  clearance: 30 mL/min/kg
[7]
  clearance: 17 mL/min/kg
[8]
  Vd: 4 L/kg
[9]
  Vd: 8.5 L/kg
[10]
  half-life: 3 h
[11]
  half-life: 9.1 h
[12]
  bioavailability: 11%
[13]
  bioavailability: 83%
[14]
  logD: 2.21
[15]
  logD: 2.7
[16]
  pKa: 7.8
[17]
  solubility: > 3.1 mM
[18]
  IC50: 60000 nM
[19]
  Kb: 3.47 nM
[20]
  IC50: 1200 nM
[21]
  IC50: 200 nM
[22]
  IC50: 1600 nM
[23]
  inhibition: inactive
[24]
  inhibition: inactive
[25]
  inhibition: inactive
[26]
  inhibition: inactive
[27]
  IC50: 22 nM
[28]
  IC50: 17000 nM

— ChEMBL document CHEMBL2034889, “The design and synthesis of novel, potent and orally bioavailable N-aryl piperazine-1-carboxamide CCR2 antagonists with very high hERG selectivity” (Bioorg Med Chem Lett, 2012)
